Results reported in PubChem BioAssay AID1963972 (Molecular Pharmacology Branch, DTP, NCI, 2024).

Tested on: 945468-187-T-J2-PDC spheroids viability
Test: Anticancer human tumor 945468-187-T-J2-PDC patient-derived rectal carcinoma cell line growth inhibition [PI3K]
Details: spheroids with HUVEC and MSC; for IC50: curve of first compound; for viability, T/C: stronger effect = lower value
How it was run: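 Tumor cells were combined with HUVEC and MSCs into spheroids, then dosed with PI3K-inhibitor combinations over half-log ranges capped near clinical Cmax or 10 microM.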

[1] = second compound 0.0316 µM, first compound 0.0316 µM
[2] = second compound 0.0316 µM, first compound 0.1 µM
[3] = second compound 0.0316 µM, first compound 0.316 µM
[4] = second compound 0.0316 µM, first compound 1 µM
[5] = second compound 0.0316 µM, first compound 3.16 µM
[6] = second compound 0.0316 µM, first compound 10 µM
[7] = second compound 0.1 µM, first compound 0.0316 µM
[8] = second compound 0.1 µM, first compound 0.1 µM
[9] = second compound 0.1 µM, first compound 0.316 µM
[10] = second compound 0.1 µM, first compound 1 µM
[11] = second compound 0.1 µM, first compound 3.16 µM
[12] = second compound 0.1 µM, first compound 10 µM
[13] = second compound 0.316 µM, first compound 0.0316 µM
[14] = second compound 0.316 µM, first compound 0.1 µM
[15] = second compound 0.316 µM, first compound 0.316 µM
[16] = second compound 0.316 µM, first compound 1 µM
[17] = second compound 0.316 µM, first compound 3.16 µM
[18] = second compound 0.316 µM, first compound 10 µM
[19] = second compound 1 µM, first compound 0.0316 µM
[20] = second compound 1 µM, first compound 0.1 µM
[21] = second compound 1 µM, first compound 0.316 µM
[22] = second compound 1 µM, first compound 1 µM
[23] = second compound 1 µM, first compound 3.16 µM
[24] = second compound 1 µM, first compound 10 µM
[25] = second compound 3.16 µM, first compound 0.0316 µM
[26] = second compound 3.16 µM, first compound 0.1 µM
[27] = second compound 10 µM, first compound 0.0316 µM
[28] = second compound 10 µM, first compound 0.1 µM
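Note: spheroids exposed to compounds for seven days before reading.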

Compound `CC1(C)CCC(Nc2ncc(C(F)(F)F)c(-c3c[nH]c4c(P(C)(C)=O)c(C#N)ccc34)n2)CN1` (stereo unspecified) + COc1c(OCCCN2CCOCC2)ccc2c3n(c(=NC(=O)c4cnc(N)nc4)nc12)CCN3 has an IC50 (second compound 0.00316 µM) of 0.663 µM, an IC50 (second compound 0.01 µM) of 0.871 µM and an IC50 (second compound 0.0316 µM) of 0.745 µM. It also gave an IC50 (second compound 0.1 µM) of 0.663 µM, an IC50 (second compound 0.316 µM) of less than 0.0316 µM and an IC50 (second compound 1 µM) of less than 0.0316 µM. For the same compound, the viability, T/C (second compound 0.00316 µM, first compound 0.0316 µM) was 91%, the viability, T/C (second compound 0.00316 µM, first compound 0.1 µM) was 86.8% and the viability, T/C (second compound 0.00316 µM, first compound 0.316 µM) was 66.3%. The viability, T/C (second compound 0.00316 µM, first compound 1 µM) was 40.5%, the viability, T/C (second compound 0.00316 µM, first compound 3.16 µM) was 32.6% and the viability, T/C (second compound 0.00316 µM, first compound 10 µM) was 27.6%. It also gave a viability, T/C (second compound 0.01 µM, first compound 0.0316 µM) of 92.9%, a viability, T/C (second compound 0.01 µM, first compound 0.1 µM) of 89.8% and a viability, T/C (second compound 0.01 µM, first compound 0.316 µM) of 76%. The viability, T/C (second compound 0.01 µM, first compound 1 µM) was 46.8%, the viability, T/C (second compound 0.01 µM, first compound 3.16 µM) was 30.2% and the viability, T/C (second compound 0.01 µM, first compound 10 µM) was 28.7%. For the same compound, the viability, T/C [1] was 110%, the viability, T/C [2] was 85% and the viability, T/C [3] was 69.2%. The viability, T/C [4] was 38.9%, the viability, T/C [5] was 37.7% and the viability, T/C [6] was 25.9%. For the same compound, the viability, T/C [7] was 86.5%, the viability, T/C [8] was 88.4% and the viability, T/C [9] was 62.8%. The viability, T/C [10] was 43.5%, the viability, T/C [11] was 37.3% and the viability, T/C [12] was 31.8%. It also gave a viability, T/C [13] of 42%, a viability, T/C [14] of 44.3% and a viability, T/C [15] of 40.2%. The viability, T/C [16] was 33.8%, the viability, T/C [17] was 31.2% and the viability, T/C [18] was 17.2%. The viability, T/C [19] was 21.3%, the viability, T/C [20] was 19.5% and the viability, T/C [21] was 22.8%. It also gave a viability, T/C [22] of 19%, a viability, T/C [23] of 17.7% and a viability, T/C [24] of 10.2%.

With `CC(C)n1nc(-c2ccc3oc(N)nc3c2)c2c(N)ncnc21` + Cc1nc(NC(=O)N2CCCC2C(N)=O)sc1-c1ccnc(C(C)(C)C(F)(F)F)c1 the IC50 (second compound 0.0316 µM) was greater than 0.1 µM, the IC50 (second compound 0.1 µM) was greater than 0.1 µM and the IC50 (second compound 0.316 µM) was greater than 0.1 µM. For the same compound, the IC50 (second compound 1 µM) was greater than 0.1 µM, the IC50 (second compound 3.16 µM) was 0.0583 µM and the IC50 (second compound 10 µM) was 0.0213 µM. It also gave a viability, T/C (second compound 0.0316 µM, first compound 0.000316 µM) of 91.4%, a viability, T/C (second compound 0.0316 µM, first compound 0.001 µM) of 109% and a viability, T/C (second compound 0.0316 µM, first compound 0.00316 µM) of 69.1%. For the same compound, the viability, T/C (second compound 0.0316 µM, first compound 0.01 µM) was 83.5%, the viability, T/C [1] was 77.9% and the viability, T/C [2] was 71.2%. For the same compound, the viability, T/C (second compound 0.1 µM, first compound 0.000316 µM) was 103%, the viability, T/C (second compound 0.1 µM, first compound 0.001 µM) was 77.7% and the viability, T/C (second compound 0.1 µM, first compound 0.00316 µM) was 88.6%. For the same compound, the viability, T/C (second compound 0.1 µM, first compound 0.01 µM) was 81.4%, the viability, T/C [7] was 84.9% and the viability, T/C [8] was 55.6%. For the same compound, the viability, T/C (second compound 0.316 µM, first compound 0.000316 µM) was 65.9%, the viability, T/C (second compound 0.316 µM, first compound 0.001 µM) was 68.2% and the viability, T/C (second compound 0.316 µM, first compound 0.00316 µM) was 80.4%. The viability, T/C (second compound 0.316 µM, first compound 0.01 µM) was 81.5%, the viability, T/C [13] was 75.3% and the viability, T/C [14] was 68.8%. It also gave a viability, T/C (second compound 1 µM, first compound 0.000316 µM) of 70.3%, a viability, T/C (second compound 1 µM, first compound 0.001 µM) of 80.6% and a viability, T/C (second compound 1 µM, first compound 0.00316 µM) of 73.2%. The viability, T/C (second compound 1 µM, first compound 0.01 µM) was 91.5%, the viability, T/C [19] was 75.3% and the viability, T/C [20] was 57.9%. For the same compound, the viability, T/C (second compound 3.16 µM, first compound 0.000316 µM) was 77%, the viability, T/C (second compound 3.16 µM, first compound 0.001 µM) was 68.9% and the viability, T/C (second compound 3.16 µM, first compound 0.00316 µM) was 75.2%. For the same compound, the viability, T/C (second compound 3.16 µM, first compound 0.01 µM) was 78.1%, the viability, T/C [25] was 64% and the viability, T/C [26] was 37.6%. For the same compound, the viability, T/C (second compound 10 µM, first compound 0.000316 µM) was 77.5%, the viability, T/C (second compound 10 µM, first compound 0.001 µM) was 62.4% and the viability, T/C (second compound 10 µM, first compound 0.00316 µM) was 66.9%. The viability, T/C (second compound 10 µM, first compound 0.01 µM) was 58.7%, the viability, T/C [27] was 46.5% and the viability, T/C [28] was 27.2%.

`C#Cc1c(F)ccc2cc(O)cc(-c3ncc4c(N5CC6CCC(C5)N6)nc(OCC56CCCN5CC(F)C6)nc4c3F)c12` (stereo unspecified) + CC(Nc1ncnc2nc[nH]c12)c1cc2cccc(Cl)c2c(=O)n1-c1ccccc1 gave an IC50 (second compound 0.0316 µM) greater than 10 µM, an IC50 (second compound 0.1 µM) greater than 10 µM and an IC50 (second compound 0.316 µM) greater than 10 µM. The IC50 (second compound 1 µM) was greater than 10 µM, the IC50 (second compound 3.16 µM) was greater than 10 µM and the IC50 (second compound 10 µM) was greater than 10 µM. It also gave a viability, T/C [1] of 101%, a viability, T/C [2] of 99.8% and a viability, T/C [3] of 95.8%. The viability, T/C [4] was 86.4%, the viability, T/C [5] was 102% and the viability, T/C [6] was 117%. For the same compound, the viability, T/C [7] was 111%, the viability, T/C [8] was 110% and the viability, T/C [9] was 103%. For the same compound, the viability, T/C [10] was 134%, the viability, T/C [11] was 107% and the viability, T/C [12] was 106%. It also gave a viability, T/C [13] of 100%, a viability, T/C [14] of 116% and a viability, T/C [15] of 87.1%. It also gave a viability, T/C [16] of 95.3%, a viability, T/C [17] of 116% and a viability, T/C [18] of 111%. It also gave a viability, T/C [19] of 96.3%, a viability, T/C [20] of 104% and a viability, T/C [21] of 113%. The viability, T/C [22] was 106%, the viability, T/C [23] was 96.2% and the viability, T/C [24] was 114%. The viability, T/C [25] was 91%, the viability, T/C [26] was 98.6% and the viability, T/C (second compound 3.16 µM, first compound 0.316 µM) was 107%. For the same compound, the viability, T/C (second compound 3.16 µM, first compound 1 µM) was 125%, the viability, T/C (second compound 3.16 µM, first compound 3.16 µM) was 114% and the viability, T/C (second compound 3.16 µM, first compound 10 µM) was 105%. It also gave a viability, T/C [27] of 114%, a viability, T/C [28] of 140% and a viability, T/C (second compound 10 µM, first compound 0.316 µM) of 149%. For the same compound, the viability, T/C (second compound 10 µM, first compound 1 µM) was 99.7%, the viability, T/C (second compound 10 µM, first compound 3.16 µM) was 116% and the viability, T/C (second compound 10 µM, first compound 10 µM) was 112%.
